Results reported in ChEMBL document CHEMBL1671824, “Synthesis and Evaluation of Fluorinated Aporphines: Potential Positron Emission Tomography Ligands for D2 Receptors” (ACS Med Chem Lett, 2011).

Key:
D(1A) dopamine receptor [1] = biological target: T1, D(1A) dopamine receptor (Rattus norvegicus, UniProt P18901); assay: Binding affinity to dopamine D1 receptor high binding site by radioligand displacement assay
D(1A) dopamine receptor [2] = biological target: T1, D(1A) dopamine receptor; assay: Binding affinity to dopamine D1 receptor low binding site by radioligand displacement assay
D(3) dopamine receptor [3] = biological target: T2, D(3) dopamine receptor (Homo sapiens, UniProt P35462); assay: Displacement of [3H]domperidone from human cloned dopamine D3 receptor expressed in mouse CCL1-3 cells by scintillation counting; assay type: cell-based
T2 sequence (P35462 whole entry): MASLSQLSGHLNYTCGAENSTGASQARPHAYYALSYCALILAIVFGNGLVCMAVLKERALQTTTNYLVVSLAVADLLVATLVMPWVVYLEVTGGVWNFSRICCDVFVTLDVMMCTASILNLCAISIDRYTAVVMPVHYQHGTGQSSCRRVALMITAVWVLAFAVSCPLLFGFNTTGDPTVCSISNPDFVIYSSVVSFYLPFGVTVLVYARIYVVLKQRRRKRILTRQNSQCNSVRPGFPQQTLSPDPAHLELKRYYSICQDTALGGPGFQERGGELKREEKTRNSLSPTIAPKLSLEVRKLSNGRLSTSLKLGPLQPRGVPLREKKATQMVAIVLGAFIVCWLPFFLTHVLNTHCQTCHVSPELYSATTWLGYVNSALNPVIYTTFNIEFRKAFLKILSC

D(3) dopamine receptor [4] = biological target: T2, D(3) dopamine receptor; assay: Displacement of [3H]domperidone from human cloned dopamine D3 receptor high binding site expressed in mouse CCL1-3 cells by scintillation counting; assay type: cell-based
D(3) dopamine receptor [5] = biological target: T2, D(3) dopamine receptor; assay: Displacement of [3H]domperidone from human dopamine D3 receptor expressed in human HEK293 cells by scintillation counting; assay type: cell-based
D(2) dopamine receptor = D(2) dopamine receptor (Rattus norvegicus, UniProt P61169); assay: Displacement of [3H]domperidone from dopamine D2 receptor low binding site in Sprague-Dawley rat striatum by scintillation counting
Chain of D(2) dopamine receptor (P61169 whole entry): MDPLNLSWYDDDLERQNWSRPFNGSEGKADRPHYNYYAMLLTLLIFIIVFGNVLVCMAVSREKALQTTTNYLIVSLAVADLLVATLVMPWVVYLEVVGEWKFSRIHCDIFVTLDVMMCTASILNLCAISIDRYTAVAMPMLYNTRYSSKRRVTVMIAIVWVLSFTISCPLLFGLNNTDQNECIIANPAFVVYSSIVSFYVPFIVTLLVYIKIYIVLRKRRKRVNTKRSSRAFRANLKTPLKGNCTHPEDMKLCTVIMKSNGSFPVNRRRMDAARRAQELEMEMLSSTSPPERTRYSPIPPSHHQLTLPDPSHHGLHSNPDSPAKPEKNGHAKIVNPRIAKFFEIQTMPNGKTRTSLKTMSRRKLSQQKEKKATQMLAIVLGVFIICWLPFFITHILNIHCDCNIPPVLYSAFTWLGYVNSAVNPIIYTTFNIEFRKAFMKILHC

T1 sequence (P18901 whole entry): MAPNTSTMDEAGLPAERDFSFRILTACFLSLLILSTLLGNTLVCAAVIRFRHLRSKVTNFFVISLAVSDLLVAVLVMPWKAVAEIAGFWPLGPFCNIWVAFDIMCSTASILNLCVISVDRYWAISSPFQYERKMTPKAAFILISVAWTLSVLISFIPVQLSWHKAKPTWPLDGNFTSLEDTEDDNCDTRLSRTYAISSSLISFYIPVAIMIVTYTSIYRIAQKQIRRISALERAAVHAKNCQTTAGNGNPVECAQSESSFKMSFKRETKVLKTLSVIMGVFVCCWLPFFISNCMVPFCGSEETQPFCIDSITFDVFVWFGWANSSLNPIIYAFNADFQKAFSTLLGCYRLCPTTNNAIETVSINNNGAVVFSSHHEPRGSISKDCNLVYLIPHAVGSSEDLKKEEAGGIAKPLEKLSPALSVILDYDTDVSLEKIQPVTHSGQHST

| Compound | Ki (D(1A) dopamine receptor [1]) | Ki (D(1A) dopamine receptor [2]) [µM] | Ki (D(3) dopamine receptor [3]) [µM] | Ki (D(3) dopamine receptor [4]) [nM] | Ki (D(3) dopamine receptor [5]) [nM] | Ki (D(2) dopamine receptor) [µM] |
| --- | --- | --- | --- | --- | --- | --- |
| CCCN1CCc2cc(OCCCF)cc3c2[C@H]1Cc1cccc(O)c1-3 | Not Active | > 5 | – | – | – | – |
| CN1CCc2cc(OCCF)cc3c2[C@H]1Cc1ccc(O)c(O)c1-3 | Not Active | 3.7 | > 10 | – | – | – |
| CCN1CCc2cc(OCCCF)cc3c2[C@H]1Cc1ccc(O)c(O)c1-3 | Not Active | > 5 | > 10 | 230 | – | – |
| CCCN1CCc2cc(OC)cc3c2[C@H]1Cc1cccc(O)c1-3 | Not Active | – | > 10 | 130 | – | – |
| CCN1CCc2cc(OCCF)cc3c2[C@H]1Cc1ccc(O)c(O)c1-3 | Not Active | > 5 | > 10 | 250 | – | – |
| CCCN1CCc2cc(OCCF)cc3c2[C@H]1Cc1ccc(O)c(O)c1-3 | Not Active | > 5 | – | 1.9 | – | – |
| CCCN1CCc2cccc3c2[C@H]1Cc1cccc(O)c1-3 | Not Active | – | – | 1.2 | – | – |
| CCCN1CCc2cc(OCCCF)cc3c2[C@H]1Cc1ccc(O)c(O)c1-3 | Not Active | > 5 | – | 1.1 | – | – |
| CCN1CCc2cc(OCCCF)cc3c2[C@H]1Cc1cccc(O)c1-3 | Not Active | > 5 | – | – | – | – |
| CCN1CCc2cc(OCCF)cc3c2[C@H]1Cc1cccc(O)c1-3 | Not Active | > 5 | – | – | – | – |
| CCCN1CCc2cc(OC)cc3c2[C@H]1Cc1ccc(O)c(O)c1-3 | – | > 5 | – | – | 1.02 | – |
| CCCN1CCc2cc(F)cc3c2[C@H]1Cc1ccc(O)c(O)c1-3 | Not Active | > 5 | > 10 | 3.8 | – | – |
| CCCN1CCc2cc(OCCF)cc3c2[C@H]1Cc1cccc(O)c1-3 | Not Active | > 5 | – | – | – | – |
| CN1CCc2cc(OCCCF)cc3c2[C@H]1Cc1ccc(O)c(O)c1-3 | Not Active | > 5 | > 10 | – | – | > 10 |
| Oc1cccc2c1-c1cccc3c1[C@@H](C2)N(CCCF)CC3 | Not Active | > 5 | – | – | – | – |
| CN1CCc2cc(OCCF)cc3c2[C@H]1Cc1cccc(O)c1-3 | Not Active | – | – | – | – | – |
